We go through one substance from patent US20250051266A1, “Novel GLV-Phenolamide: Biosynthesis and Function in Protecting Plants from Herbivore Attack” (Max-Planck-Gesellschaft zur Förderung der Wissenschaften …, priority 2021, published 2025).

Entries after “also recorded” stand apart in the source; their conditions may differ.

The subject of experiment [1] is Empoasca leafhoppers. In words: In vivo Empoasca choice assay, compounds infiltrated into irMYC2 leaves. The conditions noted are these: synthetic CoP 7 μM, CP 100 μM, FP 10 μM in 0.1% DMSO infiltrated into irMYC2 leaves. Also noted: species or system Empoasca decipiens. The method, then:
The spermi-dine-derived metabolites could be excluded as mediators of Empoasca nonhost resistance based on the lack of responses of leafhoppers to the irDH29 and irCV86 lines (FIG. 5). To further explore the involvement of CoP, CP and FP, in vivo Empoasca choice assays were conducted by individually infiltrating physiologically relevant concentrations of synthetic CoP (7 μM), CP (100 μM) and FP (10 μM) into leaves of irMYC2 plants which were devoid of elicited phenolamides (FIG. 9 and FIG. 34).
Two replicates of the 650 RILs from a 26-parent MAGIC population and their 26 parental 5 lines were planted at the WCCER field station, Prescott, Arizona, USA. To elicit a standardized herbivory response, leaves of all RILs, which were in the early-flowering stage were wounded and immediately treated with diluted Manduca sexta oral secretions (W+OS) or left untreated (control) and harvested on dry ice at 1 h and 72h. One week after metabolite sampling, all plants of the field population were screened for natural Empoasca leafhopper numbers and damage; these leafhoppers had opportunistically sampled the N. attenuata plants from neighboring native cu-cumber hostplants. The mQTL and eQTL mapping between SNPs and the relative abundance of each compound or transcript using a set of 646 RILs of the MAGIC population was done with the R package software GAPIT using General linear models (GLM). The multi-omics co-association network was built from correlations among metabolomes, transcriptomes, phytohormones and SNPs. […] Metabolome diversity and specialization and metabolic specificity was calculated using information theory by consider-ing the Shannon entropy of the idMS/MS frequency distributions. […] OS-induced volatile emissions were collected using polydimethylsiloxane (PDMS) tubing from 650 MAGIC RILs planted in the main MPI-CE glasshouse and analyzed bythermal desorption-gas chromatography-mass spectrometry (TD-GC-MS). […]

Experiment [2] addresses NaPPO2 (Nicotiana attenuata, UniProt A0A1J6IKE9). Put plainly: In vitro enzyme assay, substrate specificity of NaPPO2. It is filed as biochemical. The conditions noted are these: incubated with NaPPO2 and (Z)-3-hexenal. From the text: Extracted ion chromatograms (EIC) for doubly charged CP dimer (m/z 250.13) and m/z 347.19 in E. coli expressing NaPPO1 and NaPPO2 with CP and Z3H or (E)-2-hexenal. Compounds 1, 2, 3, 4 denote isomers of CP dimer; compounds 5, 6 denote isomers of m/z 347.19.
FIG. 53 Substrate specificity of NaPPO1 and NaPPO2 enzymes. Overlay of total ion chromatograms (TIC) of enzyme assays for authentic chlorogenic acid (CGA std), N-coumaroylputrescine (CoP std), (Z)-3-hexenal or (E)-2-hexenal with purified NaPPO1/NaPPO2 from E. coli. Compounds 1 and 2 denote CGA and CoP; 3 and 4 denote contamination peaks from (Z)-3-hexenal and CoP standards, respectively.
To test this hypothesis, purified NaPPO1, NaPPO2 and NaBBL2 proteins with N-terminal hexahistidine tags after expression in Escherichia coli were isolated (FIGS. 44-45). Incubation of either NaPPO1 or NaPPO2 (NaPPO1/2) with CP and (Z)-3-hexenal yielded a m/z 347.19 peak with identical MS/MS spectrum and retention time as the m/z 347.19 induced in N. attenuata leaves (FIG. 46). Additionally, by-products of doubly charged CP dimers at m/z 250.13 ([M+2H]2+, C26H36N4O62+) which are not detected in oral secretion-induced leaves of N. attenuata WT (Data 2) were also produced in vitro (FIG. 16 and FIG. 47). These doubly charged CP dimers were only produced when the quantities of the (Z)-3-hexenal substrate were lower than those of the CP substrate in vitro. […]
In vitro assays of NaPPO1, NaPPO2, and NaBBL2: NaPPO1, NaPPO2, and NaBBL2 enzyme activity assays were performed by incubating 100 μg of the purified recombinant protein in 84 mM acetate buffer (pH 4.8) containing 20 mM (E)-N-caffeoylputrescine (BOC Sciences, catalogue #: B0005-053482) and 1 M cis-3-hexenal (Sigma, catalogue #: W256102-SAMPLE-K) or trans-2-hexenal (Sigma, catalogue #: W256005-1KG-K). During incubation of the enzyme reactions at 8° C., 1 μL of the reactions buffer was directly injected and analyzed by LC-MS every h to detect products. […]

Chain of NaPPO2 (A0A1J6IKE9 entry or part of it): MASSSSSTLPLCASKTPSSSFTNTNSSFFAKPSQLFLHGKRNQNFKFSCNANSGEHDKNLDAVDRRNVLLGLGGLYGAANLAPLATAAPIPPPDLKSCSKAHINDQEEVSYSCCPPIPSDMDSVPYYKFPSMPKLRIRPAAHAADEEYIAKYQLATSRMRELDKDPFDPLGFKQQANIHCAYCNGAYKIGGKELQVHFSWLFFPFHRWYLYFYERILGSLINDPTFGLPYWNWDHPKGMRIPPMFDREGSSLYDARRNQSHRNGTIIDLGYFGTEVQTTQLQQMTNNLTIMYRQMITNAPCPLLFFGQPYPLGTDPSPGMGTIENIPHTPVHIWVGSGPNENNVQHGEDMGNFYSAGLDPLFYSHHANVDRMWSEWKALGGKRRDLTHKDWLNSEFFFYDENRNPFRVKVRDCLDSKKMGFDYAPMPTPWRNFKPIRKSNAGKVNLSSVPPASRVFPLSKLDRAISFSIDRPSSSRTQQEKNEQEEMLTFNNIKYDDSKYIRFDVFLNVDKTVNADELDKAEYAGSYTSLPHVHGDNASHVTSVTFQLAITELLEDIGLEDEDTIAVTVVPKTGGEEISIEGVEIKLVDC

For the substance N-coumaroylputrescine [CoP], the “preference of Empoasca for irMYC2 plants” value in experiment [1] is reported as “did not alter the preference; also recorded: not affecting leafhopper behavior or performance”. Moreover, in experiment [2], the “acceptance as substrate (new products)” value was “not accepted as substrates”.
